The values that follow come from patent publication US11168093B2, “Thienopyridine inhibitors of RIPK2” (Celgene Corporation, priority 2018, dated 2021).

Structures are written as SMILES.

The target of the test is RIPK2 enzyme (Homo sapiens (Human), UniProt O43353). The test can be described thus: RIPK2 inhibition assay, TR-FRET LanthaScreen Tracer 199 screening assay. It counts as binding. The note with it: 5 nM RIPK2 enzyme, Tracer 199 at 50 nM, Eu-anti-His Antibody at 2 nM, 1 hour incubation. The gist of the method: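 TR-FRET binding displacement: 5 nM RIPK2, 50 nM Tracer 199, 2 nM Eu-anti-His antibody in 1× kinase reaction buffer, 1 h, read at room temperature (340 ex/665 and 615 em). No-enzyme background subtracted; percent inhibition versus uninhibited controls, IC50 from unconstrained variable-slope fit.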
RIPK2 enzyme, sequence (O43353 whole entry): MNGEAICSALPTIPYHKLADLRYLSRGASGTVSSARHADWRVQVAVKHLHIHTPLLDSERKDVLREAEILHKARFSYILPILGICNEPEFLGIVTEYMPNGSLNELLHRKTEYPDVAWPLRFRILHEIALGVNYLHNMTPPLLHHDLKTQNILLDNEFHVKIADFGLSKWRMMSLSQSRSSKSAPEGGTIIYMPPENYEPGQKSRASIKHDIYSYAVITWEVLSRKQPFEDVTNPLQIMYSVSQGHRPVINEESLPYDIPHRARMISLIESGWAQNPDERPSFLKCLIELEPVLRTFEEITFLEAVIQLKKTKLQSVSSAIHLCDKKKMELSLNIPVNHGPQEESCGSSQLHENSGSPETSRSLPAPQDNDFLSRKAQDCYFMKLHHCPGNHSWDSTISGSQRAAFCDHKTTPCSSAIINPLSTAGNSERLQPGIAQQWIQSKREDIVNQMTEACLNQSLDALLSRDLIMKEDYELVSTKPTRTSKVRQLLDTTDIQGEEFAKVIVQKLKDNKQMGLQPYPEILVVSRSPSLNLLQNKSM
Background: TR-FRET usually uses a lanthanide donor and a delayed reading to cut background.

Usually IC50 stands for the concentration that gives 50% inhibition.

In turn, `C[C@@H]1C(c2cc3c(Nc4c(F)cc5scnc5c4F)ccnc3s2)=CCCN1C` [Example 69, (R)—N-(2-(1,2-dimethyl-1,2,5,6-tetrahydropyridin-3-yl)thieno[2,3-b]pyridin-4-yl)-4,6-difluorobenzo[d]thiazol-5-amine] registered an IC50 of no more than 10 nM.
`C[C@@H]1[C@H](c2cc3c(Nc4c(F)cc5scnc5c4F)ccnc3s2)CCCN1C` [Example 70b, N-(2-((2R,3R)-1,2-dimethylpiperidin-3-yl)thieno[2,3-b]pyridin-4-yl)-4,6-difluorobenzo[d]-thiazol-5-amine] had an IC50 of no more than 10 nM.
For `C[C@H]1[C@H](c2cc3c(Nc4c(F)cc5scnc5c4F)ccnc3s2)CCCN1C` [Example 71a, N-(2-((2S,3R)-1,2-dimethylpiperidin-3-yl)thieno[2,3-b]pyridin-4-yl)-4,6-difluorobenzo[d]thiazol-5-amine] the value was no more than 10 nM; for `C[C@H]1[C@@H](c2cc3c(Nc4c(F)cc5scnc5c4F)ccnc3s2)CCCN1C` [Example 71b, N-(2-((2S,3S)-1,2-dimethylpiperidin-3-yl)thieno[2,3-b]pyridin-4-yl)-4,6-difluorobenzo[d]thiazol-5-amine], no more than 10 nM.
`CCN1CCC=C(c2cc3c(Nc4c(F)cc5scnc5c4F)ccnc3s2)[C@H]1C` [Example 72a, (R)—N-(2-(1-ethyl-2-methyl-1,2,5,6-tetrahydropyridin-3-yl)thieno[2,3-b]-pyridin-4-yl)-4,6-difluorobenzo[d]thiazol-5-amine] showed an IC50 of no more than 10 nM.
In the case of `CCN1CCC=C(c2cc3c(Nc4c(F)cc5scnc5c4F)ccnc3s2)[C@@H]1C` [Example 72b, (S)—N-(2-(1-ethyl-2-methyl-1,2,5,6-tetrahydropyridin-3-yl)thieno[2,3-b]pyridin-4-yl)-4,6-difluorobenzo[d]thiazol-5-amine], the concentration for half-maximal inhibition (IC50) is no more than 10 nM.
For `CCN1CCC[C@@H](c2cc3c(Nc4c(F)cc5scnc5c4F)ccnc3s2)[C@H]1C` [Example 73b, N-[2-((2R,3R)1-ethyl-2-methyl-3-piperidyl)thieno[2,3-b]pyridin-4-yl]-4,6-difluoro-1,3-benzothiazol-5-amine] the value was no more than 10 nM.
Regarding `CCN1CCC[C@H](c2cc3c(Nc4c(F)cc5scnc5c4F)ccnc3s2)[C@@H]1C` [Example 74b, N-(2-((2S,3S)-1-ethyl-2-methylpiperidin-3-yl)thieno[2,3-b]pyridin-4-yl)-4,6-difluorobenzo[d]thiazol-5-amine], the IC50 is no more than 10 nM.
In the case of `CC1NCCC1c1cc2c(Nc3cc4ncsc4cc3F)ccnc2s1` (centres unmarked) [Example 75, 6-fluoro-N-(2-(2-methylpyrrolidin-3-yl)thieno[2,3-b]pyridin-4-yl)benzo[d]thiazol-5-amine] it was no more than 10 nM.
In the case of `CCN1CCC(c2cc3c(Nc4cc5ncsc5cc4F)ccnc3s2)C1C` (centres unmarked) [Example 76, N-(2-(1-ethyl-2-methylpyrrolidin-3-yl)thieno[2,3-b]pyridin-4-yl)-6-fluorobenzo[d]thiazol-5-amine] it was 10 to 20 nM; in that of `CC1C(c2cc3c(Nc4cc5ncsc5cc4F)ccnc3s2)CCN1CCO` (centres unmarked) [Example 77, 2-(3-(4-((6-fluorobenzo[d]thiazol-5-yl)amino)thieno[2,3-b]pyridin-2-yl)-2-methylpyrrolidin-1-yl)ethan-1-ol], 10 to 20 nM; in that of `CC1(C)NCCC1c1cc2c(Nc3cc4ncsc4cc3F)ccnc2s1` (centres unmarked) [Example 78a, N-(2-(2,2-dimethylpyrrolidin-3-yl)thieno[2,3-b]pyridin-4-yl)-6-fluorobenzo[d]thiazol-5-amine], no more than 10 nM.
Take `CCN1CCC(c2cc3c(Nc4cc5ncsc5cc4F)ccnc3s2)C1(C)C` (centres unmarked) [Example 79, N-(2-(1-ethyl-2,2-dimethylpyrrolidin-3-yl)thieno[2,3-b]pyridin-4-yl)-6-fluorobenzo[d]thiazol-5-amine]: the IC50 is 20 to 50 nM.
In turn, `CC1(C)C(c2cc3c(Nc4cc5ncsc5cc4F)ccnc3s2)CCN1CCO` (centres unmarked) [Example 80, 2-(3-(4-((6-fluorobenzo[d]thiazol-5-yl)amino)thieno[2,3-b]pyridin-2-yl)-2,2-dimethyl-pyrrolidin-1-yl)ethan-1-ol] showed an IC50 of 20 to 50 nM.
As for `Fc1cc2scnc2cc1Nc1ccnc2sc(C3CCNC34CCOC4)cc12` (centres unmarked) [Example 81, N-(2-(7-oxa-1-azaspiro[4.4]nonan-4-yl)thieno[2,3-b]pyridin-4-yl)-6-fluorobenzo[d]thiazol-5-amine], the IC50 was no less than 50 nM.
In the case of `CN1CCC(c2cc3c(Nc4cc5ncsc5cc4F)ccnc3s2)C12CCOC2` (centres unmarked) [Example 82, 6-fluoro-N-(2-(1-methyl-7-oxa-1-azaspiro[4.4]nonan-4-yl)thieno[2,3-b]pyridin-4-yl)benzo[d]thiazol-5-amine] it was no less than 50 nM; in that of `CCN1CCC(c2cc3c(Nc4cc5ncsc5cc4F)ccnc3s2)C12CCOC2` (centres unmarked) [Example 83, N-(2-(1-ethyl-7-oxa-1-azaspiro[4.4]nonan-4-yl)thieno[2,3-b]pyridin-4-yl)-6-fluorobenzo[d]thiazol-5-amine], no less than 50 nM; in that of `Fc1cc2scnc2cc1Nc1ccnc2sc(C3CCNC34CCOCC4)cc12` (centres unmarked) [Example 84, N-(2-(8-oxa-1-azaspiro[4.5]decan-4-yl)thieno[2,3-b]pyridin-4-yl)-6-fluorobenzo[d]thiazol-5-amine], no less than 50 nM.
Compound `CN1CCC(c2cc3c(Nc4cc5ncsc5cc4F)ccnc3s2)C12CCOCC2` (centres unmarked) [Example 85, 6-fluoro-N-(2-(1-methyl-8-oxa-1-azaspiro[4.5]decan-4-yl)thieno[2,3-b]pyridin-4-yl)benzo[d]thiazol-5-amine] had an IC50 of no less than 50 nM.
For `CCN1CCC(c2cc3c(Nc4cc5ncsc5cc4F)ccnc3s2)C12CCOCC2` (centres unmarked) [Example 86, N-(2-(1-ethyl-8-oxa-1-azaspiro[4.5]decan-4-yl)thieno[2,3-b]pyridin-4-yl)-6-fluorobenzo[d]thiazol-5-amine] the value was no less than 50 nM.
`CC1NCCC1c1cc2c(Nc3ccc4scnc4c3F)ccnc2s1` (centres unmarked) [Example 87, 4-fluoro-N-(2-(2-methylpyrrolidin-3-yl)thieno[2,3-b]pyridin-4-yl)benzo[d]thiazol-5-amine] registered an IC50 of no more than 10 nM.
As to `CCN1CCC(c2cc3c(Nc4ccc5scnc5c4F)ccnc3s2)C1C` (centres unmarked) [Example 88, N-(2-(1-ethyl-2-methylpyrrolidin-3-yl)thieno[2,3-b]pyridin-4-yl)-4-fluorobenzo[d]thiazol-5-amine], the IC50 was no more than 10 nM.
`CC1C(c2cc3c(Nc4ccc5scnc5c4F)ccnc3s2)CCN1CCO` (centres unmarked) [Example 89, 2-(3-(4-((4-fluorobenzo[d]thiazol-5-yl)amino)thieno[2,3-b]pyridin-2-yl)-2-methylpyrrolidin-1-yl)ethan-1-ol] returned an IC50 of no more than 10 nM.
For `CC1(C)NCCC1c1cc2c(Nc3ccc4scnc4c3F)ccnc2s1` (centres unmarked) [Example 90, N-(2-(2,2-dimethylpyrrolidin-3-yl)thieno[2,3-b]pyridin-4-yl)-4-fluorobenzo[d]thiazol-5-amine] the value was no more than 10 nM; for `CCN1CCC(c2cc3c(Nc4ccc5scnc5c4F)ccnc3s2)C1(C)C` (centres unmarked) [Example 91, N-(2-(1-ethyl-2,2-dimethylpyrrolidin-3-yl)thieno[2,3-b]pyridin-4-yl)-4-fluorobenzo[d]thiazol-5-amine], 10 to 20 nM.
Take `CC1(C)C(c2cc3c(Nc4ccc5scnc5c4F)ccnc3s2)CCN1CCO` (centres unmarked) [Example 92, 2-(3-(4-((4-fluorobenzo[d]thiazol-5-yl)amino)thieno[2,3-b]pyridin-2-yl)-2,2-dimethylpyrrolidin-1-yl)ethan-1-ol]: the IC50 was no more than 10 nM.
In the case of `CC1NCCC1c1cc2c(Nc3c(F)cc4scnc4c3F)ccnc2s1` (centres unmarked) [Example 93, 4,6-difluoro-N-(2-(2-methylpyrrolidin-3-yl)thieno[2,3-b]pyridin-4-yl)benzo[d]thiazol-5-amine] it was no more than 10 nM; in that of `CCN1CCC(c2cc3c(Nc4c(F)cc5scnc5c4F)ccnc3s2)C1C` (centres unmarked) [Example 94, N-(2-(1-ethyl-2-methylpyrrolidin-3-yl)thieno[2,3-b]pyridin-4-yl)-4,6-difluorobenzo[d]thiazol-5-amine], no more than 10 nM; in that of `CC1C(c2cc3c(Nc4c(F)cc5scnc5c4F)ccnc3s2)CCN1CCO` (centres unmarked) [Example 95, 2-(3-(4-((4,6-difluorobenzo[d]thiazol-5-yl)amino)thieno[2,3-b]pyridin-2-yl)-2-methyl-pyrrolidin-1-yl)ethan-1-ol], 10 to 20 nM.
In the case of `CC1(C)NCCC1c1cc2c(Nc3c(F)cc4scnc4c3F)ccnc2s1` (centres unmarked) [Example 96, N-(2-(2,2-dimethylpyrrolidin-3-yl)thieno[2,3-b]pyridin-4-yl)-4,6-difluorobenzo[d]thiazol-5-amine] it was no more than 10 nM; in that of `CCN1CCC(c2cc3c(Nc4c(F)cc5scnc5c4F)ccnc3s2)C1(C)C` (centres unmarked) [Example 97, N-(2-(1-ethyl-2,2-dimethylpyrrolidin-3-yl)thieno[2,3-b]pyridin-4-yl)-4,6-difluorobenzo[d]thiazol-5-amine], no more than 10 nM.
`CC1(C)C(c2cc3c(Nc4c(F)cc5scnc5c4F)ccnc3s2)CCN1CCO` (centres unmarked) [Example 98, 2-(3-(4-((4,6-difluorobenzo[d]thiazol-5-yl)amino)thieno[2,3-b]pyridin-2-yl)-2,2-dimethylpyrrolidin-1-yl)ethan-1-ol] showed an IC50 of no more than 10 nM.
`Fc1cc2scnc2c(F)c1Nc1ccnc2sc(C3CCNC34CCOC4)cc12` (centres unmarked) [Example 99, N-(2-(7-oxa-1-azaspiro[4.4]nonan-4-yl)thieno[2,3-b]pyridin-4-yl)-4,6-difluorobenzo[d]thiazol-5-amine] returned an IC50 of 10 to 20 nM.
For `CN1CCC(c2cc3c(Nc4c(F)cc5scnc5c4F)ccnc3s2)C12CCOC2` (centres unmarked) [Example 100, 4,6-difluoro-N-(2-(1-methyl-7-oxa-1-azaspiro[4.4]nonan-4-yl)thieno[2,3-b]pyridin-4-yl)benzo[d]thiazol-5-amine] the value was 10 to 20 nM.
In turn, `CCN1CCC(c2cc3c(Nc4c(F)cc5scnc5c4F)ccnc3s2)C12CCOC2` (centres unmarked) [Example 101, N-(2-(1-ethyl-7-oxa-1-azaspiro[4.4]nonan-4-yl)thieno[2,3-b]pyridin-4-yl)-4,6-difluorobenzo[d]thiazol-5-amine] displayed an IC50 of 20 to 50 nM.
